# Experimental data from ChEMBL document CHEMBL3861987, “Synthesis, antitumor evaluation and 3D-QSAR studies of [1,2,4]triazolo[4,3-b][1,2,4,5]tetrazine derivatives” (Bioorg Med Chem Lett, 2016).
# Tests used:
# [1] = system: MCF-7 (Homo sapiens); assay: Antiproliferative activity against human MCF-7 cells after 72 hrs by MTT assay; details: MCF-7, 72 h
# [2] = Cytotoxicity against human Bewo cells assessed as reduction in cell viability after 72 hrs by MTT assay; assay type: functional, cell-based
# [3] = Cytotoxicity against human HL60 cells assessed as reduction in cell viability after 72 hrs by MTT assay; assay type: functional, cell-based; details: HL-60, 72 h
# [4] = Cytotoxicity against human MCF7 cells assessed as reduction in cell viability after 72 hrs by MTT assay; assay type: functional, cell-based; details: MCF7, 72 h
# [5] = Solubility of compound in DMSO; assay type: physicochemical
IC50 ([1]; read-out: IC50) [µM],IC50 ([1]; read-out: pIC50 (converted)) [µM],solubility [5],SMILES,IC50 [2] [µM],IC50 [3] [µM],IC50 [4] [µM]
27.3,27.3,,c1ccc(CN2CCN(c3nnc4nncn4n3)CC2)cc1,,,
8.38,8.38,,O=C(c1ccccc1)N1CCN(c2nnc3nncn3n2)CC1,,,
5.26,5.26,,CCCCCC(=O)N1CCN(c2nnc3nncn3n2)CC1,,,
19.8,19.8,,CCCNc1nnc2nncn2n1,,,
14.8,14.8,,CCC(=O)N1CCN(c2nnc3nncn3n2)CC1,,,
3.08,3.08,,O=C(Cc1ccccc1)N1CCN(c2nnc3nncn3n2)CC1,,,
27.2,27.2,,c1nnc2nnc(N3CCCCC3)nn12,,,
88.2,88.1,,c1nnc2nnc(NC3CCCC3)nn12,,,
13.7,13.7,,CCCCNc1nnc2nncn2n1,,,
4.53,4.53,,O=C(c1ccc([N+](=O)[O-])cc1)N1CCN(c2nnc3nncn3n2)CC1,,,
12.8,12.9,,O=C(c1ccc(Cl)cc1)N1CCN(c2nnc3nncn3n2)CC1,,,
2.76,2.75,,CCCCC(=O)N1CCN(c2nnc3nncn3n2)CC1,,,
13.9,13.9,,CC(=O)N1CCN(c2nnc3nncn3n2)CC1,,,
11.6,11.6,,OCCNc1nnc2nncn2n1,,,
5.51,5.51,,CC(C)(C)C(=O)N1CCN(c2nnc3nncn3n2)CC1,,,
15.9,15.9,,Cc1ccc(C(=O)N2CCN(c3nnc4nncn4n3)CC2)cc1,,,
6.91,6.92,,CCCC(=O)N1CCN(c2nnc3nncn3n2)CC1,,,

IC50 ([1]; read-out: IC50) [µM],IC50 ([1]; read-out: pIC50 (converted)) [µM],solubility [5],SMILES,IC50 [2] [µM],IC50 [3] [µM],IC50 [4] [µM]
5.39,5.38,,CC(C)COC(=O)N1CCN(c2nnc3nncn3n2)CC1,,,
3.51,3.52,,c1nnc2nnc(NC3CCCCC3)nn12,,,
1.26,1.26,,O=C(C1CCCCC1)N1CCN(c2nnc3nncn3n2)CC1,,,
,44.9,,Cc1nnc2nnc(N3CCCC3)nn12,5.36,29.7,44.8
,19.6,,Clc1ccc(-c2nnc3nnc(N4CCCC4)nn23)c(Cl)c1,8.06,8.65,19.6
,,Insoluble,c1ccc(-c2nnc3nnc(N4CCCC4)nn23)cc1,> 100,> 100,> 100
,29.6,,Clc1ccccc1-c1nnc2nnc(N3CCCC3)nn12,2.99,2.66,29.6
,8.87,,c1ccc(-c2nnc3nnc(N4CCOCC4)nn23)cc1,5.65,30.4,8.87
,38.9,,Cc1nnc2nnc(N3CCOCC3)nn12,5.88,4.52,38.9
,55,,CC(C)(C)c1nnc2nnc(N3CCCC3)nn12,12.5,> 100,55
,,Insoluble,Fc1ccc(-c2nnc3nnc(N4CCCC4)nn23)cc1,> 100,4.56,> 100
,46.8,,CC(C)c1nnc2nnc(N3CCCC3)nn12,3.43,71.2,46.8
,13.1,,Clc1ccc(-c2nnc3nnc(N4CCOCC4)nn23)cc1,4.09,0.63,13.1
,42.9,,CCCCCc1nnc2nnc(N3CCCC3)nn12,27.9,42.5,42.9
,47,,CCc1nnc2nnc(N3CCCC3)nn12,5.02,47,47
,41.4,,Fc1ccc(-c2nnc3nnc(N4CCCCC4)nn23)cc1,3.34,30.7,41.4

# Second part, the compound before the results:
SMILES,IC50 ([1]; read-out: IC50) [µM],IC50 ([1]; read-out: pIC50 (converted)) [µM],solubility [5],IC50 [2] [µM],IC50 [3] [µM],IC50 [4] [µM]
c1ccc(CCNc2nnc3nncn3n2)cc1,1.24,1.24,,,,
Nc1nnc2nncn2n1,46.5,46.5,,,,
CN1CCN(c2nnc3nncn3n2)CC1,21.6,21.6,,,,
O=[N+]([O-])c1ccc(-c2nnc3nnc(N4CCCC4)nn23)cc1,,,,> 100,> 100,> 100
C1CCC(c2nnc3nnc(N4CCCC4)nn23)CC1,,37.7,,22,23.8,37.7
Cc1ccc(-c2nnc3nnc(-n4nc(C)cc4C)nn23)cc1,,36.2,,7.54,> 100,36.2
CCCCCc1nnc2nnc(-n3nc(C)cc3C)nn12,,22,,2.79,1.05,22
Cc1cc(C)n(-c2nnc3nnc(-c4ccccc4Cl)n3n2)n1,,19.5,,3.21,73.6,19.5
COc1ccc(-c2nnc3nnc(N4CCOCC4)nn23)cc1,,,,8.94,39,> 100
Cc1cc(C)n(-c2nnc3nnc(-c4ccccc4)n3n2)n1,,13.6,,23.6,12.1,13.7
Fc1ccc(-c2nnc3nnc(N4CCOCC4)nn23)cc1,,32.9,,4.65,28.9,32.9
Cc1cc(C)n(-c2nnc3nnc(C)n3n2)n1,,17.8,,2.61,0.43,17.8
O=[N+]([O-])c1ccc(-c2nnc3nnc(N4CCOCC4)nn23)cc1,,,,> 100,5.79,> 100
Cc1cc(C)n(-c2nnc3nnc(C(C)C)n3n2)n1,,33.7,,2.32,1.16,33.7
Clc1ccc(-c2nnc3nnc(N4CCOCC4)nn23)c(Cl)c1,,19.3,,1.71,4.84,19.3
Cc1cc(C)n(-c2nnc3nnc(C(C)(C)C)n3n2)n1,,17.6,,0.73,0.73,17.6
Clc1ccccc1-c1nnc2nnc(N3CCOCC3)nn12,,14.9,,3.15,13.2,14.9
Cc1cc(C)n(-c2nnc3nnc(-c4ccc(Cl)cc4)n3n2)n1,,5.57,,22.6,> 100,5.57
CCc1nnc2nnc(-n3nc(C)cc3C)nn12,,36.1,,1.64,0.82,36
Cc1cc(C)n(-c2nnc3nnc(C4CCCCC4)n3n2)n1,,12.8,,6.7,0.67,12.8
COc1ccc(-c2nnc3nnc(-n4nc(C)cc4C)nn23)cc1,,16.7,,18.3,> 100,16.7
Cc1cc(C)n(-c2nnc3nnc(Cc4ccccc4)n3n2)n1,,54.8,,2.29,2.61,54.8
O=[N+]([O-])c1ccc(-c2nnc3nnc(N4CCCCC4)nn23)cc1,,,,> 100,0.61,> 100
COc1ccc(-c2nnc3nnc(N4CCCCC4)nn23)cc1,,,,> 100,12.8,> 100
Cc1cc(C)n(-c2nnc3nnc(-c4ccc([N+](=O)[O-])cc4)n3n2)n1,,6.85,,7.29,> 100,6.85
